Test results taken from patent publication US6288110A, “Pharmaceutical compositions comprising disulfiram” (Yeda Research and Development Co Ltd., priority 1998, dated 2001).

What was measured:
[1] = system: dopamine-β-hydroxylases; conditions: cited from earlier work
[2] = system: neovascularization induced by bFGF; assay: Subcutaneous angiogenesis in nude mice (bFGF agarose bead), disulfiram per os; type: in vivo, CD1 nude male mice
Protocol: FIGS. 1A-1C show inhibition of neovascularization in nude mice by disulfiram (D). […] Bar is one mm.
Spherical agarose beads of approximately 1 mm in diameter were formed from 4% low gelling temperature agarose (Sigma) in PBS containing b-FGF or HB-EGF as angiogenic agent. The candidate angiogenic agent (10 μg/bead) was warmed in sterile microtest tubes to 40° C. in a dry-bath for a few seconds. 10 μl of agarose solution (6% in saline, 45° C.) were then added to 5 μl of the angiogenic compound and beads were formed above ice using a 20 μl pipette tip. Beads were implanted subcutaneously 1 cm away from the incision-site as reported previously for multicellular spheroids (Abramovitch, 1995) in mice anesthetized with a single dose of 75 mg/kg ketamine+3 mg/kg xylazine (i.p.). Experiments were carried out for 4 days in CD1 nude male mice. Each day one ml of aqueous solutions with or without 0.1-0.25 mM (25-60 μg) disulfiram was introduced per os to the mice using a feeding needle. Treatment was for three days starting from the day of bead implantation until one day before termination. Experiments were done in quadruplicates and repeated three times.
Agarose beads containing the angiogenic factor bFGF (10 μg/bead) were implanted subcutaneously into CD1 nude mice as described in section (d) of "Materials and Methods" above. […]

[3] = system: C6 rat glioma tumor; assay: Growth of C6 glioma tumors in nude mice; type: in vivo, CD1 nude male mice; C6 rat glioma cells; conditions: 30 days; for Tumor weight / % inhibition (tumor growth): per os 3 times per week; for Tumor weight: n=8, mean ± SEM, control 1.37 ± 0.21
Protocol: C6 rat glioma cells (10^6) were injected subcutaneously into the back of the neck of CD1 nude male mice. After 3 days, 1 ml of aqueous solutions with or without 0.1-0.5 mM disulfiram (25-120 μg) was introduced per os to the mice using a feeding needle. Mice were orally fed three times per week. Tumors were removed 30 days following C6 cells injection, weighed, fixed in buffered formalin and histological sections were prepared. Each experimental group included 8 animals, and experiments were repeated twice.
Tumors from mice fed systemically 3 times a week with disulfiram were weighed 30 days following administration of C6 rat glioma cells to CD1 nude mice. […] Experiments were repeated twice (n=8).

[4] = system: mammary tumors; conditions: N-2-fluorenylacetamide or N-hydroxy-N-2-fluorenylacetamide, rats; cited from earlier work
[5] = system: BALB/MK keratinocytes; assay: TUNEL assay for apoptosis, BALB/MK keratinocytes; type: cell-based, murine; conditions: 5 μM
Protocol: Cells were cultured on microscope slides for 48 hours in presence of growth media as described above, until reaching 40-50% confluency. […] Apoptosis was analyzed by the in situ TUNEL staining carried out as described (Wride, 1994). Briefly, microscope slides were incubated for 15 min in 2×SSC buffer at 60° C., washed in DDW and incubated with 20 μg/ml proteinase K (Boehringer Mannheim) for 15 min at room temperature. After a wash with DDW, endogenous peroxidases were inactivated by incubating the slides with 2% H2 O2 in PBST (PBS with 0.05% Tween 20) for 10 min at room temperature. Slides were then incubated in TdT buffer (Boehringer Mannheim) for 5 min at room temperature, and a reaction mixture containing 5×TdT buffer and 1 μl biotin-21-dUTP (Clontech, 1 mM stock) and 8 units of the TdT enzyme (Boehringer Mannheim) in total volume of 50 μl was subsequently added. The reactions were carried out at 37° C. for 1.5 hr in a humid chamber. The slides were washed in 2×SSC, DDW and finally with PBS and covered with 10% skim milk in PBST for 15 min. After removal of the skim milk, the sections were incubated with ABC solution from ABC kit (Vector Laboratories, Inc.) for 30 min at room temperature, washed with PBS and stained using AEC procedure (Sigma) The slides were then washed ×3 in DDW and stained with haematoxylin for 30 sec and mounted by Kaiser's glycerol gelatin (Merck). […]

[6] = system: Lewis lung carcinoma (D122) metastasis in the lungs; assay: Lewis lung carcinoma metastasis, footpad model; type: in vivo, C57/BL mice
Text: The Lewis lung carcinoma (3LL), which originated spontaneously in a C57/BL/6J (H-2^b) mouse, is a malignant tumor that produces spontaneous lung metastases. The metastatic clone D122, kindly provided by Prof. Lea Eisenbach (Weizmann Institute of Science, Rehovot, Israel), was used herein for tissue culture and for in vivo experiments. The cell cultures were maintained in DMEM supplemented with 10% heat-inactivated FCS, glutamine, antibiotics, sodium pyruvate and nonessential amino acids.
Two metastasis models were used: 1. The footpad model. 2. The i.v. model. The assay of tumor development in the footpad model and evaluation of lung metastases was done as previously described (Eisenbach, 1983). Briefly, eight mice in each experimental group were inoculated with 2×10^5 D122 cells in 0.05 ml PBS in the right hind footpad. Three days following tumor cells injection, mice were treated per os by disulfiram or saline 3 times per week. The tumors became palpable within 11-19 days. Local tumor growth was determined by measuring the footpad diameter with a calipers. At 26-40 days following inoculation, when local tumor reached a diameter of 6-7 mm, mice were anesthetized with a single dose of 75 mg/kg ketamine+3 mg/kg xylazine (i.p.) and the tumor-bearing leg was removed by amputation above the knee joint. To measure progress of metatases the mice were killed 24 days following amputation by injecting 20 mg/mouse xylazine i.p. and lungs were weighed.
Twenty-four days following the removal of the tumor-bearing leg, lungs were weighed.

CCN(CC)C(=S)SSC(=S)N(CC)CC [disulfiram, Bis(diethylthiocarbamoyl) disulfide]
inhibition of dopamine-β-hydroxylases [1]: inhibit | inhibition of neovascularization induced by bFGF inside and around the bead ([2]; 60 μg/mouse systemically, 4 days after implantation): inhibited almost completely | angiogenesis around the beads containing bFGF ([2]; 25-60 μg/mouse/day per os, 3 days (1 ml of 0.1-0.25 mM)): clearly inhibited | Tumor weight ([3]; 25 μg, p = 0.003): 0.59 ± 0.08 g | % inhibition (tumor growth) ([3]; 25 μg/mouse, p = 0.003): 57% | Tumor weight ([3]; 120 μg, p < 0.05): 0.84 ± 0.18 g | % inhibition (tumor growth) ([3]; 120 μg/mouse, p < 0.05): 38% | tumor size compared with water-fed control (in words) ([3]; fed 3 times a week, n=8): significantly smaller | incidence of mammary tumors [4]: reduce the incidence of mammary tumors | apoptosis by TUNEL method [5]: did not induce | metastasis on the lungs compared with water-fed control (in words) ([6]; 30 μg, 3 times a week, 24 days, n=6, p=0.005): significantly smaller | lowering of the metastatic load in the lungs ([6]; 30 μg/mouse, 24 days following removal of tumor-bearing leg): ~10 fold | decrease in the metastatic load in the lungs (in words) ([6]; 120 μg/mouse (not shown)): only slight decrease | deaths of disulfiram-treated mice ([6]; by 24th day following leg removal, control 50% died): no disulfiram-treated mice died | mice with no metastases at all ([6]; disulfiram-treated group): two out of six
